According to patent publication US20050026957A1, “Methods of treating nodulocystic acne” (Allergan, Inc., priority 2003, published 2005):

Columns and labels:
[1] = oral, cited from earlier work; for impact of food on bioavailability: literature
[2] = in vivo; cited from earlier work
sebaceous glands = settings: severe acne; published reports (Geiger); cited from earlier work
severe psoriasis = assay: Patient with severe psoriasis on Ortho-Novum treated with tazarotene; format: in vivo, human; settings: 6 mg per day; after 30 days
Text: The patient presents symptoms of severe psoriasis. The symptoms include lesions approximately 4 to 10 centimeters across appearing as raised patches of wine red skin many of which are covered in silvery white scales. The lesions are mostly dry and rough, and quite often noticeably warm to the touch. The lesions are present on the elbows, knees, scalp, and groin area. The patient experiences intense burning and itching associated with the lesions.
The patient is currently taking Ortho-Novum® for contraception.
Tazarotene at a dose of 6 mg per day is prescribed.

[3] = tested on: patients having nodulocystic acne; assay: Two placebo-controlled dose-ranging safety studies of oral tazarotene in nodulocystic acne; format: in vivo, human; settings: for cheilitis: treatment period; for Emotional lability: all cases mild
Protocol: Two placebo-controlled dose-ranging studies are conducted to evaluate the safety of oral tazarotene in patients having nodulocystic acne. In the first study, patients receive orally administered tazarotene at daily doses of 0.4 mg to 2.8 mg in 96 (71+25) patients (12 weeks treatment plus 12 weeks post-treatment). In the second study, daily doses of 0.75 mg to 6 mg tazarotene are administered to 181 patients (24 weeks treatment plus 12 weeks post-treatment).

patients = assay: Two placebo-controlled 24-week safety studies of oral tazarotene plus dose-response evaluations; format: in vivo, human; settings: 4.5 mg orally once daily; two safety trials; placebo 17%
Protocol: Two multicenter, double-blind, randomized, placebo-controlled 24-week studies of identical design are conducted to evaluate the safety of oral tazarotene. In addition, 16- to 24-week dose-response evaluations are performed.
In the two safety trials, the incidence of adverse side effects with a 4.5 mg dose administered orally once daily is compared to the incidence of the same side effects with a placebo. […] The majority of these were mild in severity and typical of adverse effects associated with oral retinoids.

sebum secretion = assay: Sebum output by Sebutape patches in the nodulocystic acne study; format: in vivo, human; settings: oral 0.75 to 6 mg once daily; up to 86 patients
Protocol: (§1) Sebum output is assessed every 4 weeks at selected centers using the Sebutape® patches, sold by Cuderm Corporation. Urinalysis, chemistry, and hematology values are monitored. Bone formation and resorption assessments (serum bone alkaline phosphatase and serum amino terminal telopeptides, respectively) at selected centers are monitored.
Sebum secretion output is assessed in a maximum of 86 patients (with successively fewer patients at each timepoint—e.g., 60 patients at week 24, 46 patients at week 36). Importantly, there is no consistent statistically significant differences in sebum production across treatment groups using the Sebutape® method of assessment.

[4] = tested on: patients treated for acne; assay: Adverse event monitoring in studies of orally administered tazarotene for acne (Table 2); format: in vivo, human; settings: combined data from Studies 1 and 2 (N = 223)
Protocol: Studies are conducted on orally administered tazarotene for the treatment of acne. Adverse events (side effects) are monitored.

severe nodulocystic acne = assay: Double-blind, randomized, placebo-controlled study of oral tazarotene in severe nodulocystic acne; format: in vivo, human
Text: A multicenter, double-blind, randomized, placebo-controlled parallel-group study is undertaken to determine the efficacy of orally administered tazarotene in treating severe nodulocystic acne.
In addition, washout periods for other medications for this study are: 1 week for vitamin A supplements >5000 IU; 2 weeks for topical anti-acne medications (e.g., retinoids, azelaic acid, benzoyl peroxide); 2 weeks for topical or systemic antibiotic therapy that may alter the course of acne; and 6 months for systemic retinoids.
Patients are randomized to receive placebo or oral tazarotene (0.75, 1.5, 3, or 6 mg), in a 1:1:1:1:1 ratio once daily for 24 weeks. After this, the patients are followed without treatment for an additional 12 weeks. Patients discontinuing from the treatment period due to adverse effects or lack of efficacy are eligible for entry into the post-treatment phase.
In the study, overall acne severity is rated as: none (no inflammatory acne lesions); mild (few to several papules or pustules, no nodulocystic lesions); moderate (several to many papules or pustules, few to several nodulocystic lesions); and severe (numerous or extensive papules or pustules, many, for example, at least about 5 or at least about 10, nodulocystic lesions). […]
as §1
Bone mineral density of spine and proximal femur at selected centers is monitored. Ligament calcification or osteophyte formation (lateral X-ray of the cervical and thoracic spine, and ankle calcaneous) is monitored. Epiphyseal growth plate closure (internal oblique X-ray of the ankle in patients less than or equal to 21 years old) is monitored.

[5] = PK and PD interaction studies of oral tazarotene with oral contraceptives; format: in vivo, human; settings: tazarotene 1.1 mg or 6 mg daily with NE/EE or NGM/EE
Protocol: It is the objective of this study to determine if there are pharmacokinetic (PK) and pharmacodynamic (PD) interactions between tazarotene and commonly prescribed oral contraceptives (OCs) when coadministered together.
Three separate clinical studies are conducted to evaluate the PK and PD interactions of oral tazarotene and OCs in healthy volunteers. Two studies evaluate daily doses of norethindrone (NE)/ethinyl estradiol (EE) with daily doses of tazarotene 1.1 mg (N=27) and 6 mg (N=29). The third study assesses the daily doses of norgestimate (NGM)/EE with daily doses of tazarotene 6 mg (N=26). OCs are administered for three consecutive menstrual cycles. Daily doses of tazarotene are started during the 2nd cycle and continued through the end of the studies. PK parameters for EE, NE, and NGM (AUC0-24 and Cmax) are determined before tazarotene dosing and after tazarotene dosing on day 6 of the 2nd and 3rd cycles. Serum concentrations of luteinizing hormone (LH) and follicle-stimulating hormone (FSH)-markers of contraceptive efficacy are also evaluated before tazarotene dosing and after tazarotene dosing on days 2, 4, and 6 of the 2nd and 3rd cycles. Serum progesterone levels are assessed on days 18 and 20 of the 2nd and 3rd cycles. […]

[6] = Food effect on pharmacokinetics of tazarotenic acid after oral tazarotene (high-fat meal vs fast); format: in vivo, human; settings: 6.3 mg oral tazarotene, healthy subjects; for average ratio of Cmax values (test/reference): high-fat meal vs 8-10 hour fast
Protocol: For the purposes of this application, the bioavailability of a drug may be based on the human pharmokinetic parameters of maximum blood concentration (Cmax) and Area under the blood concentration-time curve (AUC).
The LC-MS/MS test for simultaneous detection of tazarotene and tazarotenic acid may be run as follows. One ml of plasma (EDTA-treated) is diluted with 1.0 ml of water. Diluted plasma is extracted using solid phase extraction (SPE) on a C18 cartridge. The eluate is evaporated, reconstituted in a water/methanol-based mobile phase, and injected onto a 4.6×50 mm, 3 μm pore size C-8 reverse phase high pressure liquid chromatography (HPLC) column (Agilent, Wilmington, Del.). Compounds are gradient-eluted at 1.2 mL/min and detected using an API 3000 triple quadrupole mass spectrometer with an Atmospheric Pressure Chemical Ionization (APCI) source (PE-Sciex, Concord, Ontario, Canada). Molecular reaction monitoring enhances the sensitivity and selectivity of this assay by collisionally dissociating the protonated molecules for the analyte and an internal standard thereby forming the product ions. The specific precursor-product ion pair monitored are m/z 352→324 for tazarotene, m/z 359→331 for the tazarotene internal standard, m/z 324→294 for tazarotenic acid, and m/z 331+298 for the tazarotenic acid internal standard. The lower limit of quantitation at assay range tested is 0.1 ng/mL, with a coefficient of variation and deviation from nominal concentration of <15%.

[7] = topical administration of tazarotene; 'often well less than'; cited from earlier work

Q: For `COc1cc(C)c(/C=C/C(C)=C/C=C/C(C)=C/C(=O)O)c(C)c1C` [Acitretin, acitretin], which “impact of food on bioavailability” value [1] is on record?
A: bioavailability is increased in the presence of food

Q: Which results are given for `CC1=C(/C=C/C(C)=C/C=C/C(C)=C\C(=O)O)C(C)(C)CCC1` [Isotretinoin, isotretinoin]?
A: effect on coadministered contraceptive tablets [2]: decreases blood concentrations of both ethinyl estradiol and norethindrone; decrease in sebum secretion rate (sebaceous glands): about 90%; total dose needed to reach the same peak blood concentration in the fasted state vs following a high fat meal [1]: more than doubled; impact of food on bioavailability [1]: bioavailability is increased in the presence of food

Q: With `C=C(c1ccc(C(=O)O)cc1)c1cc2c(cc1C)C(C)(C)CCC2(C)C` [bexarotene] as the compound, how does the “impact of food on bioavailability” value [1] read?
A: bioavailability is increased in the presence of food

Q: With `CCOC(=O)c1ccc(C#Cc2ccc3c(c2)C(C)(C)CCS3)nc1` [tazarotene] as the compound, how does the “psoriasis symptoms and lesions” value (severe psoriasis) read?
A: symptoms of itching and burning are relieved

Q: And the joint disorder ([3]; 2.8 mg, n=11, placebo 0%)?
A: 27%

Q: What about the arthralgia ([3]; 2.8 mg, n=11, placebo 6%) of the same compound?
A: 9%

Q: And the myalgia ([3]; 2.8 mg, n=11, placebo 9%)?
A: 0%

Q: What about the asthenia ([3]; 2.8 mg, n=11, placebo 13%) of the same compound?
A: 0%

Q: And the dry skin ([3]; 2.8 mg, n=11, placebo 19%)?
A: 18%

Q: And the headache ([3]; 2.8 mg, n=11, placebo 28%)?
A: 9%

Q: And the cheilitis ([3]; 2.8 mg, n=11, placebo 31%)?
A: 64%

Q: And the Emotional lability ([3]; 3 mg group, placebo 2 (4%))?
A: 1 (3%) patient (%)

Q: And the arthralgia ([3]; 3 mg, n=37)?
A: 8%

Q: And the asthenia ([3]; 3 mg, n=37)?
A: 19%

Q: What about the dry skin ([3]; 3 mg, n=37) of the same compound?
A: 35%

Q: What about the headache ([3]; 3 mg, n=37) of the same compound?
A: 19%

Q: And the joint disorder ([3]; 3 mg, n=37)?
A: 14%

Q: And the myalgia ([3]; 3 mg, n=37)?
A: 16%

Q: And the cheilitis ([3]; 3 mg, n=37)?
A: 78%

Q: What about the Depression ([3]; 6 mg group) of the same compound?
A: none

Q: And the Emotional lability ([3]; 6 mg group)?
A: 5 (14%) patient (%)

Q: What about the arthralgia ([3]; 6 mg, n=36) of the same compound?
A: 28%

Q: What about the asthenia ([3]; 6 mg, n=36) of the same compound?
A: 19%

Q: And the dry skin ([3]; 6 mg, n=36)?
A: 50%

Q: And the headache ([3]; 6 mg, n=36)?
A: 36%

Q: And the joint disorder ([3]; 6 mg, n=36)?
A: 19%

Q: And the myalgia ([3]; 6 mg, n=36)?
A: 25%

Q: And the cheilitis ([3]; 6 mg, n=36)?
A: 94%

Q: What about the “changes in urinalysis, chemistry, or hematology measures (incl. liver function tests, triglycerides, total cholesterol, HDL cholesterol)” value ([3]; 0.4 to 6 mg daily) of the same compound?
A: no consistent dose-related clinically significant changes

Q: What about the “patients withdrawing from either study due to adverse events” value ([3]; 7/277, all groups of both studies incl. placebo) of the same compound?
A: 2.5%

Q: And the incidence of cheilitis (patients)?
A: 66%

Q: And the “effect on sebum secretion (Sebutape method)” value (sebum secretion)?
A: does not substantially reduce sebum secretion relative to placebo

Q: And the Conjunctivitis [4]?
A: 0 (0.0) NUMBER OF (%) OF PATIENTS

Q: And the Irritation of eyes [4]?
A: 0 (0.0) NUMBER OF (%) OF PATIENTS

Q: And the “incidence of treatment success (≧50% global improvement) vs placebo” value (severe nodulocystic acne; 3 mg and 6 mg, week 24 and throughout post-treatment phase, p≦0.05)?
A: significantly higher

Q: And the “reduction of overall acne severity” value (severe nodulocystic acne; 6 mg, week 16 until end of post-treatment phase, p≦0.01)?
A: significantly more than placebo

Q: And the “abnormalities in liver function test results or elevated triglycerides, total cholesterol, or HDL cholesterol” value (severe nodulocystic acne; oral 0.75 to 6 mg once daily)?
A: not generally associated

Q: Which “90% confidence intervals of AUC0-24 and Cmax for EE, NE, and NGM” value [5] does the source give for `CC1(C)CCSc2ccc(C#Cc3ccc(C(=O)O)cn3)cc21` [tazarotenic acid] here?
A: within the 80-125% boundary

Q: And the “effect of high-fat meal on bioavailability or pharmacokinetics” value ([6]; single and multiple dose)?
A: does not substantially affect

Q: And the “average ratio of Cmax values (test/reference)” value ([6]; Day 0)?
A: 1.00

Q: What about the “average ratio of Cmax values (test/reference)” value ([6]; Day 9) of the same compound?
A: 0.829

Q: What about the maximum blood concentration [7] of the same compound?
A: less than 30 ng/ml
